Results reported in ChEMBL document CHEMBL1201862, “PubChem BioAssay data set” (2004).
Several values for one entry are separate records, joined by “and”; a condition that tells them apart may be missing. Equal entries are not always repeated. Activity calls are given as the source filed them.

Legend:
[1] = biological target: T1, Voltage-gated N-type calcium channel alpha-1B subunit/Amyloid beta A4 precursor protein-binding family A member 1 (Homo sapiens, UniProt Q00975+Q02410); experiment: disruptors of Mint-PDZ/N-type channel peptide interaction – biochemical, HTRF, set 2, SAR follow-up (AID 434980); assay type: functional
T1 sequence (Q00975 whole entry): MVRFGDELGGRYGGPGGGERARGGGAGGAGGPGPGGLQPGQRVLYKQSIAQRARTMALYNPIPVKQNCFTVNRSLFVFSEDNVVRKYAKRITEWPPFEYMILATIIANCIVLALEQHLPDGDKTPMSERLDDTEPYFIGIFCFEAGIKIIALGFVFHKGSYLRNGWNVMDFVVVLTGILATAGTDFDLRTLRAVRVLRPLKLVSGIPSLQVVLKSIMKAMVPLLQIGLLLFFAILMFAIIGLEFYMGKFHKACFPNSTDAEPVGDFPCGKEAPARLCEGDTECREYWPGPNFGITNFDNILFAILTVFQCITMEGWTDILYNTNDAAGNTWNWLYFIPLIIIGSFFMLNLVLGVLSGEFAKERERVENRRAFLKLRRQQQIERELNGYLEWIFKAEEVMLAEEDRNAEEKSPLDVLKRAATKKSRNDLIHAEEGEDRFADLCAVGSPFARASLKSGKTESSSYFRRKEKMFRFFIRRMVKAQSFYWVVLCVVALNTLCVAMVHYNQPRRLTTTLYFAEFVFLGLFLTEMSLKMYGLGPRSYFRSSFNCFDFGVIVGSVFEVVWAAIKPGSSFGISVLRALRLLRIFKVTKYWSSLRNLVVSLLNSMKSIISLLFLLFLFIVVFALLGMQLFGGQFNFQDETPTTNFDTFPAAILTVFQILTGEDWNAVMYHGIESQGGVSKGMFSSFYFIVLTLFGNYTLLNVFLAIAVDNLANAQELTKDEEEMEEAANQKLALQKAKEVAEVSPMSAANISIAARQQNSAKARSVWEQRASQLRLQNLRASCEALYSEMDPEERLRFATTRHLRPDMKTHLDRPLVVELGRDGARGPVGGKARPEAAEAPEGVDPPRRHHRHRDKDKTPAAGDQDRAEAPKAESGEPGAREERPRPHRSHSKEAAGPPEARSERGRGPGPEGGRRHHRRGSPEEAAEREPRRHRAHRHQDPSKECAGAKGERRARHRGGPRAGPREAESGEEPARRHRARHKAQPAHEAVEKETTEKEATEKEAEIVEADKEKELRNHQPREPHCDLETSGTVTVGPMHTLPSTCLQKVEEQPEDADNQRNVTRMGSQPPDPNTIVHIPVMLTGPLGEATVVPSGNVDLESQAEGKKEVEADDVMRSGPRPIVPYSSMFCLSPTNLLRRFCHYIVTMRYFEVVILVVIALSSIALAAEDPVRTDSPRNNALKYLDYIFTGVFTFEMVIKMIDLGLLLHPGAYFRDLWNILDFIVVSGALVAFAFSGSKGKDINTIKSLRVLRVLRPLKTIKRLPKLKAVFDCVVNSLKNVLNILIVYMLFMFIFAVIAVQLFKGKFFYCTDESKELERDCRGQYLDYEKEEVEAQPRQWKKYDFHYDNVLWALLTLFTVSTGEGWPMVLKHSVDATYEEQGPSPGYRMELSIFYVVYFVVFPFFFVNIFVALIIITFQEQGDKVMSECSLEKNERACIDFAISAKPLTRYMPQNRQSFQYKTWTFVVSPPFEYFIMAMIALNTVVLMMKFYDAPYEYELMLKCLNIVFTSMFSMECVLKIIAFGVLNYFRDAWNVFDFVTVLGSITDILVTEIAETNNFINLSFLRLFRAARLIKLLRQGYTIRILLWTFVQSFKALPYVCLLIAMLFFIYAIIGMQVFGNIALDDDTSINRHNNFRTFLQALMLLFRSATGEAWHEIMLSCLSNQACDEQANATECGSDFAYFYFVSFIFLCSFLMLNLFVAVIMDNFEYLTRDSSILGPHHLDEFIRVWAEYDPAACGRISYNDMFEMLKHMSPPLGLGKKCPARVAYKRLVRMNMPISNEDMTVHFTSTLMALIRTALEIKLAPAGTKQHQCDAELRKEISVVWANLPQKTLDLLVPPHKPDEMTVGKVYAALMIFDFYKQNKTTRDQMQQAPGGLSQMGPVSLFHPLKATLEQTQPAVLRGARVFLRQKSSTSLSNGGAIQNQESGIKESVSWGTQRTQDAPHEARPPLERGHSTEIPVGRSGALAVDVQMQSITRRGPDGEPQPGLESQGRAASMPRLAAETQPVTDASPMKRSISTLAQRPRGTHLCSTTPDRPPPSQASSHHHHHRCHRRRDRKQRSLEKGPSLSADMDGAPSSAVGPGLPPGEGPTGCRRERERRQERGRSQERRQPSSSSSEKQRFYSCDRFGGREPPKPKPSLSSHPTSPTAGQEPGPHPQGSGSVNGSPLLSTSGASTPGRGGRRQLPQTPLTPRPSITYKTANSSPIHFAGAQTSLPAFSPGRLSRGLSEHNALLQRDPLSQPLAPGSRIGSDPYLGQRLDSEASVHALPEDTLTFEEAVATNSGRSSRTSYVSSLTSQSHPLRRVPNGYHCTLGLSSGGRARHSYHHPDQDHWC
T1 sequence (Q02410 whole entry): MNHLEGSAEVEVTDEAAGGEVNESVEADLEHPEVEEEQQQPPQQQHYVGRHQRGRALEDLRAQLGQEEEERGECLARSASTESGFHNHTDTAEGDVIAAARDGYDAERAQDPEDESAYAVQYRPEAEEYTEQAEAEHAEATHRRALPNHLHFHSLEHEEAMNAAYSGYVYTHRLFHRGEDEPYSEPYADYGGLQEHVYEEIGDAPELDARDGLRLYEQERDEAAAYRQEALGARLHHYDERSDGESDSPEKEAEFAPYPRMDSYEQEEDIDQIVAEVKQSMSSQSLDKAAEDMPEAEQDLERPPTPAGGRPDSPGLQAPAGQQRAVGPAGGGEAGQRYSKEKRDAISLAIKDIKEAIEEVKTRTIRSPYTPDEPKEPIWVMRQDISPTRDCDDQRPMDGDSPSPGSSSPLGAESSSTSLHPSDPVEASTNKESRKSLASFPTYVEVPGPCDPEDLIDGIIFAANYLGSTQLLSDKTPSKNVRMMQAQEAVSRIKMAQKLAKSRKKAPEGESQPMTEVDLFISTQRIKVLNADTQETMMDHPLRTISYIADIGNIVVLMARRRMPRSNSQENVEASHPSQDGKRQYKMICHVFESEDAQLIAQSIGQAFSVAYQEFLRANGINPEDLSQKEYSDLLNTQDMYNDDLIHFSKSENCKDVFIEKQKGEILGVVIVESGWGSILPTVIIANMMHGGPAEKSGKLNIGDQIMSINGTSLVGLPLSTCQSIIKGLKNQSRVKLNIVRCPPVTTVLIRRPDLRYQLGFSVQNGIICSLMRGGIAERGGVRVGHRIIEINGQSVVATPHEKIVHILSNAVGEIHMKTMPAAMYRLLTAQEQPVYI

[2] = biological target: T1, Voltage-gated N-type calcium channel alpha-1B subunit/Amyloid beta A4 precursor protein-binding family A member 1; experiment: disruptors of Mint-PDZ/N-type channel peptide interaction – biochemical, HTRF, SAR follow-up (AID 2489); assay type: functional
SUMO E1/E2 = SUMO E1/E2 (Homo sapiens, UniProt P63279+Q9UBE0+Q9UBT2); experiment: SAR analysis of SUMOylation using HTRF in an in-Vitro dose response assay. [Related pubchem assays (depositor defined):AID2006, AID2011, AID2018, AID2069, AID2658]; assay type: functional
Sequence of SUMO E1/E2 (Q9UBE0 whole entry): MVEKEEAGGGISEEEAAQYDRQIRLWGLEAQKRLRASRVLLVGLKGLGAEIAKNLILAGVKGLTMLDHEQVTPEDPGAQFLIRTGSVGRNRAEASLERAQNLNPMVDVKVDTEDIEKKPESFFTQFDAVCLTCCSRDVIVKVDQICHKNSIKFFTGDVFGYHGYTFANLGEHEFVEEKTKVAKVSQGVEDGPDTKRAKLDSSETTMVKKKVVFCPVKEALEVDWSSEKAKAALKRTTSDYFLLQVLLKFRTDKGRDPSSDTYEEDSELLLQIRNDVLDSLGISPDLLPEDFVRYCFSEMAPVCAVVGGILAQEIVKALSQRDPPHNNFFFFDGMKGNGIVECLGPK
Sequence of SUMO E1/E2 (Q9UBT2 whole entry): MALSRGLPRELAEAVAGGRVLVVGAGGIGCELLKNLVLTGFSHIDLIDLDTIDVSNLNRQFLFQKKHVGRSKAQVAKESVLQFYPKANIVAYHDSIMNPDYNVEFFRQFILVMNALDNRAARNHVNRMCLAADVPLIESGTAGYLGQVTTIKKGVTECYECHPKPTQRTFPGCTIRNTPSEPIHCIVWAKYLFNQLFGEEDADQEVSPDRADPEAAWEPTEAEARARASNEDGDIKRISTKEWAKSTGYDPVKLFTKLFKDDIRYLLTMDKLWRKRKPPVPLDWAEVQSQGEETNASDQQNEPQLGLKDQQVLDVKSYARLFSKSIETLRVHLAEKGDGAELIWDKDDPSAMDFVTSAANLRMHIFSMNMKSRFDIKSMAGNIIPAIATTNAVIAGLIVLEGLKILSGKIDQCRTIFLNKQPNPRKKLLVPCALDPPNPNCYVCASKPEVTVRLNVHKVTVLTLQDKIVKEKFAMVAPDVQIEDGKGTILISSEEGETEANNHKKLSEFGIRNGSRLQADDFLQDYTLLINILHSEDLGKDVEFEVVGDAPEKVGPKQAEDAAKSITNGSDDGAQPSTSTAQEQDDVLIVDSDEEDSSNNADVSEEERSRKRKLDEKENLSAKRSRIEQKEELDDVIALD
Sequence of SUMO E1/E2 (P63279 whole entry): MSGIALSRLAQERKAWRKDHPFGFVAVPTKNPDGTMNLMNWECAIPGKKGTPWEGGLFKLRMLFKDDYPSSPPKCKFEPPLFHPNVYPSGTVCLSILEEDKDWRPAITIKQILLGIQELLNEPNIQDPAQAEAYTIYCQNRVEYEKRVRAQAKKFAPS

[3] = biological target: T2, Mannose-6-phosphate isomerase (Homo sapiens, UniProt P34949); experiment: phosphomannose isomerase inhibition – biochemical, fluorescence intensity, confirmation (AID 1535)
T2 sequence (P34949 whole entry): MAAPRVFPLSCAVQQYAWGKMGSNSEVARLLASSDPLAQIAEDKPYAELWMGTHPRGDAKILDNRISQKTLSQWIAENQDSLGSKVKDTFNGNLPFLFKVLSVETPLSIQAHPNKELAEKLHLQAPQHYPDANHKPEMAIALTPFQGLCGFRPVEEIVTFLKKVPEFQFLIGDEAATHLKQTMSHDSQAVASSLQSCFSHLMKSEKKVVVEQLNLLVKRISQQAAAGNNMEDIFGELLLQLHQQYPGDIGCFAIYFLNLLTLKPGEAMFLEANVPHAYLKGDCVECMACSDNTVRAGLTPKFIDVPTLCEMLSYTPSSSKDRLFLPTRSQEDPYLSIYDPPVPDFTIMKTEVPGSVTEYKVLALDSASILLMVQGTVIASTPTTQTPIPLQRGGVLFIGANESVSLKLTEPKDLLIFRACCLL

[4] = biological target: Kappa-type opioid receptor (Homo sapiens, UniProt P41145); experiment: SAR analysis of small molecule agonists of the kappa opioid receptor via a luminescent beta-arrestin assay - Set 3. [Related pubchem assays (depositor defined):AID1777, AID1785, AID1786, AID1966, AID2133, AID2136, AID2284, AID2500]; assay type: functional
Sequence of Kappa-type opioid receptor (P41145 whole entry): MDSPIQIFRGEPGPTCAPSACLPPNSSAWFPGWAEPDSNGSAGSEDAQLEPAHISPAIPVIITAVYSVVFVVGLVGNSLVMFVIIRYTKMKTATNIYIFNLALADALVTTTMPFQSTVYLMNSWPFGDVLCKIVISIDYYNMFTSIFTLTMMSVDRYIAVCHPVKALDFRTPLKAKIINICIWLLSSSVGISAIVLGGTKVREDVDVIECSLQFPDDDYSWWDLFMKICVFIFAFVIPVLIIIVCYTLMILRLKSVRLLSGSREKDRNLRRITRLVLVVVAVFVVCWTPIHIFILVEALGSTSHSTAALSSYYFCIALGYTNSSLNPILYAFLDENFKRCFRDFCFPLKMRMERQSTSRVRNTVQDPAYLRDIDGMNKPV

Phospholipase D1 = biological target: T3, Phospholipase D1 (Homo sapiens, UniProt Q13393); experiment: PLD1 purified enzyme concentration response. [Related pubchem assays (depositor defined):AID588854]; assay type: functional
T3 sequence (Q13393 whole entry): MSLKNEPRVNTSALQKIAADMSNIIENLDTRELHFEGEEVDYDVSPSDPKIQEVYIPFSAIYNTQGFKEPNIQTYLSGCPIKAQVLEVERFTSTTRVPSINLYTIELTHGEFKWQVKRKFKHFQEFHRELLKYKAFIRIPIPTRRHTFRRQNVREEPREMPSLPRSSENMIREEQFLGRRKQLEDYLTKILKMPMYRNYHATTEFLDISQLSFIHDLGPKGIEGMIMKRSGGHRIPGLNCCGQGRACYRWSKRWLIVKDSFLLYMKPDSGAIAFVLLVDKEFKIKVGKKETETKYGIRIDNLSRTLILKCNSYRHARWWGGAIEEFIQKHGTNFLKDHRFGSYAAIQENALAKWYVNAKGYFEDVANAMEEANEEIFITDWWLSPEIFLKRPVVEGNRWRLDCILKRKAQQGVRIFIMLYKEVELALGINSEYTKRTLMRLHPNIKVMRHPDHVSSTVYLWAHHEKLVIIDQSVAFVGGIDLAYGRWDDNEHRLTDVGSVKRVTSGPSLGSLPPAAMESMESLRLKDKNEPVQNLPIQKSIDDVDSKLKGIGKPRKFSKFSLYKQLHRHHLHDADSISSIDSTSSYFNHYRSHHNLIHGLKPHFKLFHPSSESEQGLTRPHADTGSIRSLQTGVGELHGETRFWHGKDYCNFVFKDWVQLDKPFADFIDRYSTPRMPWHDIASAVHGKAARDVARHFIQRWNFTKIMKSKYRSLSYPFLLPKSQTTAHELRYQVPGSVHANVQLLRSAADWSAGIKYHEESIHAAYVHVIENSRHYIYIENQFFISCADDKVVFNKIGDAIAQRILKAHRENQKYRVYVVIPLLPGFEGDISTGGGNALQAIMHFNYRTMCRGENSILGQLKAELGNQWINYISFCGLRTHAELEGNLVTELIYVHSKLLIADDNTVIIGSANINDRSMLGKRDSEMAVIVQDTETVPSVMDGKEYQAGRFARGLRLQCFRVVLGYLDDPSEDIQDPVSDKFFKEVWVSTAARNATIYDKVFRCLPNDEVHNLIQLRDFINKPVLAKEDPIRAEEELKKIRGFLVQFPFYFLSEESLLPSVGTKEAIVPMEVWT

Phospholipase D2 = Phospholipase D2 (Homo sapiens, UniProt O14939); experiment: PLD2 purified enzyme concentration response. [Related pubchem assays (depositor defined):AID588854]; assay type: functional
[5] = biological target: Nuclear receptor subfamily 0 group B member 1 (Homo sapiens, UniProt P51843); experiment: Luminescence-based cell-based high throughput dose response assay for inhibitors of the orphan nuclear receptor subfamily 0, group B, member 1 (DAX1; NR0B1). [Related pubchem assays (depositor defined):AID504766, AID504790]; assay type: functional
[6] = biological target: FAD-linked sulfhydryl oxidase ALR (Homo sapiens, UniProt P55789); experiment: ALR-catalysed DTT oxidation blockers – biochemical, H2O2 detection, luminescence, cherry-pick, dose response (AID 493248)
Sequence of FAD-linked sulfhydryl oxidase ALR (P55789 whole entry): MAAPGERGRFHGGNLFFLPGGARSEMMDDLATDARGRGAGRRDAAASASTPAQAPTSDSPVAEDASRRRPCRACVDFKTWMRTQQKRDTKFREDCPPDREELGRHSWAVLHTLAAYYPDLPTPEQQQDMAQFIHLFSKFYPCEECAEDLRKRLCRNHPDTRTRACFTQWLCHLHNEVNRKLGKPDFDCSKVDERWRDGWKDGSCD

HEK293 = experiment: cells; assay type: functional, cell-based; settings: Homo sapiens
[7] = MIN6 cell viability loss – mouse insulinoma, cytotoxicity control, dose response (AID 2122); assay type: functional;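 further: confirmatory high-throughput counterscreen run to flag cytotoxic compounds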
[8] = decrease of insulin promoter-GFP reporter – imaging, high-content screening, mouse beta cells (AID 1628); assay type: functional; settings: MIN6

## COc1ccccc1NC(=O)COC(=O)c1cc(-c2ccco2)nc2ccccc12
[1]
  IC50: 6.66 µM (active) and 12.5 µM (active)
[2]
  IC50: 21.5 µM (active) and > 56.8 µM (inactive)
SUMO E1/E2
  IC50: 16 µM (active) and 56.7 µM (active)

## Clc1nss/c1=N\c1ncccn1
[3]
  IC50: > 100 µM (inactive)

## COc1ccc(CNC(=O)COC(=O)c2cc(-c3ccco3)nc3ccccc23)c(OC)c1
[1]
  IC50: 11.1 µM (active)
[2]
  IC50: 23 µM (active)
SUMO E1/E2
  IC50: 14.7 µM (active)

## O=C(c1ccccn1)N(Cc1cc2cc(Cl)ccc2[nH]c1=O)CC1CC1
[4]
  EC50: > 20 µM (inactive)

## O=C(NCCN1CCC2(CC1)C(=O)NCN2c1ccccc1)c1cc2ccccc2s1
Phospholipase D1
  IC50: 4 µM (active)
Phospholipase D2
  IC50: 0.092 µM (active)

## O=C(NCCN1CCC2(CC1)C(=O)NCN2c1ccc(F)cc1)c1cnc2ccccc2c1
Phospholipase D1
  IC50: 20 µM (active)
Phospholipase D2
  IC50: 0.14 µM (active)

## COc1ccc(/C=N/Nc2nc3ccccc3[nH]2)c(OC)c1OC
[5]
  IC50: > 67.5 µM (inactive)
[6]
  AC50: 0.278 µM (active)
HEK293
  IC50: > 67.5 µM (inactive)

## Cc1c(Cl)cccc1NC(=O)CCC(=O)N/N=C/c1ccc[nH]1
[7]
  IC50: 2.36 µM (active)
[8]
  IC50: 2.31 µM (active)
